Laboratory results taken from patent US7408025B2, “Lipopeptides as antibacterial agents” (priority 1999, dated 2008).

Assay: Acute toxicity monitoring in non-inoculated mice
Format: in vivo, female CD-1 mice
Details: not inoculated; 10 mg/kg, s.c. × 2; acute toxicity group
Procedure: The test compound was dissolved in 10.0 ml of 50 mM phosphate buffer to give a solution of 1 mg/ml (pH=7.0). This solution was serially diluted with vehicle by 4-fold ([…]) to give 0.25, 0.063 and 0.016 mg/ml solutions. All the solutions were filtered with […] Nalgene syringe filter. Immediately after the bacterial inoculation, group 1 animals were subcutaneously (sc) injected with buffer (no test compound) and groups 2 to 5 were given test compound sc at 10.0, 2.5, 0.63, and 0.16 mg/kg, respectively. Group 6 animals received test compound sc at 10 mg/kg (or the highest therapeutic dose of a given compound) only for monitoring acute toxicity. These injections were repeated once at 4 hours after the inoculation for the respective groups. The injection volume at each time was 10 ml per kilogram of body weight. The results of the in vivo efficacy test are summarized in Table II, which provides a representative example of the results obtained for Compound 70. The 50% effective dose (ED50) is calculated on the basis of the number of mice surviving 7 days after inoculation. The ED50 was determined for other compounds of this invention in a similar manner.

Structure (SMILES): CCCCCCCCCC(=O)NC(Cc1c[nH]c2ccccc12)C(=O)NC(CC(N)=O)C(=O)NC(CC(=O)O)C(=O)NC1C(=O)NCC(=O)NC(CCCNC(=O)C2Cc3c([nH]c4ccccc34)CN2)C(=O)NC(CC(=O)O)C(=O)NC(C)C(=O)NC(CC(=O)O)C(=O)NCC(=O)NC(CO)C(=O)NC(C(C)CC(=O)O)C(=O)NC(CC(=O)c2ccccc2N)C(=O)OC1C (stereo not shown) [Compound 70]
- Survival (7 days): 5/5
